Test results reported in a compilation of properties of binary mixtures (doi:10.1016/j.molliq.2020.112718).

Assay: xn = mol fraction of the nth substance listed
Details: 100 kPa

CCOCC[n+]1ccn(C)c1.C[C@@H](O)[C@H](N)C(=O)[O-] + O
viscosity [mPa·s]
Details	298.15 K	303.15 K	308.15 K	313.15 K	318.15 K	323.15 K	328.15 K
x1 = 0.3157	834	538	344	231	167	–	97.8
x1 = 0.3647	889	571	360	–	174.5	–	–
x1 = 0.4246	938	604	376	259	180.6	130.8	102.6
x1 = 0.508	990	638	393	273	187.2	136.2	–
x1 = 0.6189	–	671	410	287	195	143.5	109.6
x1 = 1	1133	730	439	313	207	153.8	–

COCC[n+]1ccn(C)c1.C[C@@H](O)[C@H](N)C(=O)[O-] + O
viscosity [mPa·s]
Details	298.15 K	303.15 K	308.15 K	313.15 K	318.15 K	323.15 K	328.15 K
x1 = 0.3313	740	473	–	199.2	139.9	101.7	82.2
x1 = 0.3795	767	500	306	210	148.1	108.5	84.9
x1 = 0.4475	800	529	320	222	155.8	–	88.2
x1 = 0.5347	829	–	332	233	–	–	91.3
x1 = 0.657	852	–	344	242	171.8	–	94.8
x1 = 1	900	625	362	260	184.4	136.8	99.6
